Experimental data as given in patent US10045990B2, “ERBB4 inhibitors and methods of use thereof” (Arizona Board of Regents on behalf of Arizona State …, priority 2015, dated 2018).

Columns and labels:
ERBB3/HER3 = target: T1, ERBB3/HER3 (Homo sapiens, UniProt P21860); assay: NAPPA array kinase autophosphorylation assay; assay type: biochemical; conditions: DMSO = 100
T1 construct: made in house; host or cells: human cell-free coupled transcription-translation (1-Step Human Coupled IVT), on the slide
T1 sequence (P21860 20-1342): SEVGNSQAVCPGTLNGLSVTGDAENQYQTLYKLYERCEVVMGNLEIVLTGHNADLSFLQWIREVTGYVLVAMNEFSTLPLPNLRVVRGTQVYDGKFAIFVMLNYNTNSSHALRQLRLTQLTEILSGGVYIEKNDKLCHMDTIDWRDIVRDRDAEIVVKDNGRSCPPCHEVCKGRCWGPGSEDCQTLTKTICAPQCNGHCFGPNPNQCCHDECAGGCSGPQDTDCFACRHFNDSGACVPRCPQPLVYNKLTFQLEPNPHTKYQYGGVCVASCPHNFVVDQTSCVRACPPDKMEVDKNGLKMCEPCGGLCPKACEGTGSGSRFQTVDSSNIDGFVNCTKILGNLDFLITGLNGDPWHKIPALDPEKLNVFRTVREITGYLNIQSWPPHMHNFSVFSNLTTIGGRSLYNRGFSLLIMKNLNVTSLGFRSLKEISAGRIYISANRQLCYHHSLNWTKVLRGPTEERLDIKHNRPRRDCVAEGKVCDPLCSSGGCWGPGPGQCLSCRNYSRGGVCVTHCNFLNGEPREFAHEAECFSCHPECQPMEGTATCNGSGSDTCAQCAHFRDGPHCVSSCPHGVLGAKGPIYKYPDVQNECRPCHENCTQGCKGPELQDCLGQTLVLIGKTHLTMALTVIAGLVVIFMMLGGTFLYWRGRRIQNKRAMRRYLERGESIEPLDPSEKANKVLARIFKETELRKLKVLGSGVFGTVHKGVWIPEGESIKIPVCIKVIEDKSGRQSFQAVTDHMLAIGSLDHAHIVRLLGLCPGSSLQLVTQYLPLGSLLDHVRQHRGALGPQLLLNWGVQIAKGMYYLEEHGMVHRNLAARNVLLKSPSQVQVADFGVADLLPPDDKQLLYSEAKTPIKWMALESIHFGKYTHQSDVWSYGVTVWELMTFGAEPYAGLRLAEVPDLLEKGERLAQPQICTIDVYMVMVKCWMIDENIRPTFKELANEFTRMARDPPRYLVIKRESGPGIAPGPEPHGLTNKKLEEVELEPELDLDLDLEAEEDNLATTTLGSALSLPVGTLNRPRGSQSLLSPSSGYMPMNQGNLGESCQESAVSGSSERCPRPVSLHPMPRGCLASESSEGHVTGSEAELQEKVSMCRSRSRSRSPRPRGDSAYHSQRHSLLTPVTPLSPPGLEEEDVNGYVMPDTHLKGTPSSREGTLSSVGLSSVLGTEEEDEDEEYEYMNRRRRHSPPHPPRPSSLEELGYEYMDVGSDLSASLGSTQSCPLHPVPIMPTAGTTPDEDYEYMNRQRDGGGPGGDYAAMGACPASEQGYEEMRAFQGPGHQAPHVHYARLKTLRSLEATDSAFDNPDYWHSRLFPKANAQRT
Method: (§1) Protein microarrays were generated using NAPPA (Nucleic acid programmable protein array) methodology, which permits the use of freshly expressed proteins for functional assays (FIG. 1). In NAPPA, cDNAs coding for the target of interest are cloned into an expression vector, which generates a fusion (Halo Tag, GST, etc.) to the target, and spotted onto a glass slide. Then to each spot, a HeLa cell in vitro transcription-translation reagent is added, whereby the fusion gene is transcribed into mRNA and translated. The nascent proteins are captured to the slide with antibody to the fusion partner (i.e., HaloTag-ligand, α-GST antibody) that is spotted adjacent to the DNA during the manufacture of the array. This method allows for up to thousands of protein targets to be arrayed. NAPPA microarrays can be expressed using an in vitro transcription and translation system (IVTT), and the anti-tag antibody captures newly synthesized proteins. Following expression, the microarrays were treated with phosphatase to remove any phosphorylation that occurred during the expression of the proteins.
(§2) De-phosphorylated arrays were then incubated with kinase buffer containing various concentrations of ATP and/or kinase inhibitors. The kinase activity was measured as end point assay using anti-phopho tyrosine antibody linked to cy3 as the detecting agent (FIG. 2). The data was normalized using positive control features present in each array.
(§3) NAPPA kinase microarrays we generated with virtually all protein-tyrosine kinases from the human genome. The coding sequence for each tyrosine kinase was clone into an expression plasmid and immobilized on the microarray surface, with one protein kinase per feature. After the microarray was expressed, any phosphorylation that occurred during the expression step was removed by a treatment with lambda phosphatase.
(§4) Unphosphorylated microarrays were then incubated with a kinase buffer (25 mM Tris-HCl (pH 7.5), 5 mM beta-glycerophosphate, 2 mM dithiothreitol (DTT), 0.1 mM Na3VO4, 10 mM MgCl2) supplemented with […] and/or kinase inhibitors (concentration ranging from 0-10 uM). The kinase autophosphorylation activity was measured through the levels of phosphorylation present in each feature and was detected by phospho-tyrosine antibody. […] Staurosporine is a pan kinase inhibitor used as a control.
(§5) NAPPA arrays suitable for measuring the activity of protein kinases and evaluating the selectivity of kinase inhibitors were produced using a variation of the published protocol (Proteomics Clin Appl. 2013 June; 7(5-6):372-7.). Briefly, NAPPA printing mix was prepared with plasmid DNA coding for genes of interest, anti-flag antibody, cross-linker and poly-lysine. Samples were agitated for 90 minutes at 1200 rpm at RT and printed in quadruplicate in aminopropyltriethoxysilane coated glass slides.
(§6) Arrays were stored in an airtight container at room temperature until use.

EGFR/ERBB1 = target: T2, EGFR/ERBB1 (Homo sapiens, UniProt P00533); assay: NAPPA array kinase autophosphorylation assay; assay type: biochemical; conditions: DMSO = 100
T2 construct: made in house; host or cells: human cell-free coupled transcription-translation (1-Step Human Coupled IVT), on the slide
Method: as §1, §2, §3, §4, §5, §6

DYRK2 = target: T3, DYRK2 (Homo sapiens, UniProt Q92630); assay: NAPPA array kinase autophosphorylation assay; assay type: biochemical; conditions: DMSO = 100
T3 construct: made in house; host or cells: human cell-free coupled transcription-translation (1-Step Human Coupled IVT), on the slide
T3 sequence (Q92630 whole entry): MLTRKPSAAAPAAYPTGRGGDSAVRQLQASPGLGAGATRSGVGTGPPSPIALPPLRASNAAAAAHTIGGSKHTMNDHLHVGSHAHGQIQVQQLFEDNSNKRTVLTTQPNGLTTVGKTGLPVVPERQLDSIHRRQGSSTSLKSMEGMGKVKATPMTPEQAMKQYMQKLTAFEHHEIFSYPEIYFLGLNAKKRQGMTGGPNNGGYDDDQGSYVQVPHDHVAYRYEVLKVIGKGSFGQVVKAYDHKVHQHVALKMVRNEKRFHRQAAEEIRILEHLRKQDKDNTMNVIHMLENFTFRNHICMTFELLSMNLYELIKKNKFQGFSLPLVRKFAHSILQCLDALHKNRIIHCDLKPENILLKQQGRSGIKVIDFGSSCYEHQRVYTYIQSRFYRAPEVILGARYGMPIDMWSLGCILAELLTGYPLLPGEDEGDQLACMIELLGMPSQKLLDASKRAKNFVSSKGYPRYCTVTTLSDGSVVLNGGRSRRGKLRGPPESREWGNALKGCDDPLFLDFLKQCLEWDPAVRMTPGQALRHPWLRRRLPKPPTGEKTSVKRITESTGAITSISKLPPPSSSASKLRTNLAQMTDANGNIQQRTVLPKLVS
Method: as §1, §2, §3, §4, §5, §6

TESK2 = target: T4, TESK2 (Homo sapiens, UniProt Q96S53); assay: NAPPA array kinase autophosphorylation assay; assay type: biochemical; conditions: DMSO = 100
T4 construct: made in house; host or cells: human cell-free coupled transcription-translation (1-Step Human Coupled IVT), on the slide
T4 sequence (Q96S53 whole entry): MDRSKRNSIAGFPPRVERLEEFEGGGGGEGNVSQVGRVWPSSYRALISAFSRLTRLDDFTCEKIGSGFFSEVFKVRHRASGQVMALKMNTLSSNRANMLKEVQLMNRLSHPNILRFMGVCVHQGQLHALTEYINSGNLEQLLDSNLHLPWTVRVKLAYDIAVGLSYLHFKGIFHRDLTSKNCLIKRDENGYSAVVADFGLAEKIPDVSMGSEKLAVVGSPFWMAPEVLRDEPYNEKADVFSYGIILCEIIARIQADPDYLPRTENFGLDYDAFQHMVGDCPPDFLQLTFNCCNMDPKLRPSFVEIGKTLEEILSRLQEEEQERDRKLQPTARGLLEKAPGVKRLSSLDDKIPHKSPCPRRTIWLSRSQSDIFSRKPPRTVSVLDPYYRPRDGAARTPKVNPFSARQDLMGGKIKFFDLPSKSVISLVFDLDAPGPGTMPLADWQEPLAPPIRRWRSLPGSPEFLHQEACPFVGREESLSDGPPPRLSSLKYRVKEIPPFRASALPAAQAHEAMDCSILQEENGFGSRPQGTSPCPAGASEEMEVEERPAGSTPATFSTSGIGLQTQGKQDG
Method: as §1, §2, §3, §4, §5, §6

HCK = target: T5, HCK (Homo sapiens, UniProt P08631); assay: NAPPA array kinase autophosphorylation assay; assay type: biochemical; conditions: DMSO = 100
T5 construct: made in house; host or cells: human cell-free coupled transcription-translation (1-Step Human Coupled IVT), on the slide
T5 sequence (P08631 whole entry): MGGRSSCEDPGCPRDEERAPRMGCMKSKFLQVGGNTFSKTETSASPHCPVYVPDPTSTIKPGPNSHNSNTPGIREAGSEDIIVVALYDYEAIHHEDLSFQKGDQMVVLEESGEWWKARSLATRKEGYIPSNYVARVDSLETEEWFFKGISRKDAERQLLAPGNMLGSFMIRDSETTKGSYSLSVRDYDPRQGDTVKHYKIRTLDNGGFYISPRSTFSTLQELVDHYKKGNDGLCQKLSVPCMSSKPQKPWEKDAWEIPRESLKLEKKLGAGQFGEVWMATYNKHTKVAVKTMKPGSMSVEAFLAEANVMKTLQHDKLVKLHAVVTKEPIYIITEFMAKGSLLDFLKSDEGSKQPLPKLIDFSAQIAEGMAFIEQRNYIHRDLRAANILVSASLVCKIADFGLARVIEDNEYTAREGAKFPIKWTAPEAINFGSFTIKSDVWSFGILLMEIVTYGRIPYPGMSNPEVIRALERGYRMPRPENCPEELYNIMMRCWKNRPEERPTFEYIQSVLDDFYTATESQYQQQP
Method: as §1, §2, §3, §4, §5, §6

TNK2 = target: T6, TNK2 (Homo sapiens, UniProt Q07912); assay: NAPPA array kinase autophosphorylation assay; assay type: biochemical; conditions: DMSO = 100
T6 construct: made in house; host or cells: human cell-free coupled transcription-translation (1-Step Human Coupled IVT), on the slide
Method: as §1, §2, §3, §4, §5, §6

SYK = SYK (Homo sapiens, UniProt P43405); assay: NAPPA array kinase autophosphorylation assay; assay type: biochemical; conditions: DMSO = 100
Method: as §1, §2, §3, §4, §5, §6

Tec = target: T7, Tec (Homo sapiens, UniProt P42680); assay: NAPPA array kinase autophosphorylation assay; assay type: biochemical; conditions: DMSO = 100
T7 construct: made in house; host or cells: human cell-free coupled transcription-translation (1-Step Human Coupled IVT), on the slide
T7 sequence (P42680 whole entry): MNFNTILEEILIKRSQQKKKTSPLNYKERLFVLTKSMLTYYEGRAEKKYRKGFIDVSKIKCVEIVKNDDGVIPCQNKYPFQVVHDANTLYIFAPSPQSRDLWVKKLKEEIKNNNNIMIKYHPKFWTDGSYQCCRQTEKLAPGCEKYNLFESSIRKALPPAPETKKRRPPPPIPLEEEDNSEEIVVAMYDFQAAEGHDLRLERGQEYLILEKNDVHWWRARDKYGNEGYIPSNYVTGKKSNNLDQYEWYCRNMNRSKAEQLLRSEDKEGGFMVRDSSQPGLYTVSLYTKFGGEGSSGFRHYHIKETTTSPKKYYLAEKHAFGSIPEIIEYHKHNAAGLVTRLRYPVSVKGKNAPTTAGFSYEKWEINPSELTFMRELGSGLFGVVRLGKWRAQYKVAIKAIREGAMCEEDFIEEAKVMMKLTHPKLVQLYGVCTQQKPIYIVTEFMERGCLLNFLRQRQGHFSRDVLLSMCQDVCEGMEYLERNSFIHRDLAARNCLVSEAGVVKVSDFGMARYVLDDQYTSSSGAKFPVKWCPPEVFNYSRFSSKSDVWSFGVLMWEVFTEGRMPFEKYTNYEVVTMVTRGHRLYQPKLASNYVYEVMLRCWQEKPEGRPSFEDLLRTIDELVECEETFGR
Method: as §1, §2, §3, §4, §5, §6

ERBB4/HER4 = target: T8, ERBB4/HER4 (Homo sapiens, UniProt Q15303); assay: NAPPA array kinase autophosphorylation assay; assay type: biochemical; conditions: DMSO = 100
T8 construct: made in house; host or cells: human cell-free coupled transcription-translation (1-Step Human Coupled IVT), on the slide
Method: as §1, §2, §3, §4, §5, §6

COV318 = assay: cell growth / viable cell count in ERBB4-overexpressing, BTK-negative cell line; assay type: cell-based, human
OVSAHO = conditions: 1 uM, 7 days, Trypan blue exclusion, vs DMSO
YES1 = target: T9, YES1 (Homo sapiens, UniProt P07947); assay: NAPPA array kinase autophosphorylation assay; assay type: biochemical; conditions: DMSO = 100
T9 construct: made in house; host or cells: human cell-free coupled transcription-translation (1-Step Human Coupled IVT), on the slide
T9 sequence (P07947 whole entry): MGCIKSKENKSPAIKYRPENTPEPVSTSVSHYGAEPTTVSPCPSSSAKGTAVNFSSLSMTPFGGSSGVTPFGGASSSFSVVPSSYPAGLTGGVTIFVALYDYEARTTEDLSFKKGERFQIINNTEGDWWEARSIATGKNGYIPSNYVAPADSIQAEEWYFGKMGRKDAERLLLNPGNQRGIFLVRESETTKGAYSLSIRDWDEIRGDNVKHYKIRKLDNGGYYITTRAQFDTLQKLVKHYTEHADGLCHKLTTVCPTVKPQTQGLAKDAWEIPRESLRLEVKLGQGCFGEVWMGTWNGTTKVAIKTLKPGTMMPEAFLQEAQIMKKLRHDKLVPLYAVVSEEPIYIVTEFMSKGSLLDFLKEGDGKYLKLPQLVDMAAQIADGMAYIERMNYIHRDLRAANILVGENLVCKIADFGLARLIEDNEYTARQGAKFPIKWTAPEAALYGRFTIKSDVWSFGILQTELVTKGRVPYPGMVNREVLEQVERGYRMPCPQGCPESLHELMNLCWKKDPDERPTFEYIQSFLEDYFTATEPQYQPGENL

OVKATE = conditions: 1 uM, 7 days, Trypan blue exclusion, vs DMSO
responsive cell lines = assay: cell based assays, responsive cell lines; design: species or system human
1321N1 = assay: cell growth / viable cell count in ERBB4-overexpressing, BTK-negative cell line; assay type: cell-based, human
BCRABL = assay: NAPPA array kinase autophosphorylation assay; assay type: biochemical, human; conditions: DMSO = 100
Chain of BCRABL (P00519 229-512 limits assumed): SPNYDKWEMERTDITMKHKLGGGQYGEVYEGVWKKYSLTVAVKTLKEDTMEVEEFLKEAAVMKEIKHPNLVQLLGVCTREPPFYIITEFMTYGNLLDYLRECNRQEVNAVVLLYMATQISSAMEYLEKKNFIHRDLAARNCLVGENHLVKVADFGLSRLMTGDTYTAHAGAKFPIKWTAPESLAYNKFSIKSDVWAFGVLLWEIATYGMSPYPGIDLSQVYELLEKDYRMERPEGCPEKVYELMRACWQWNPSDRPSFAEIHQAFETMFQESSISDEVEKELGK

HEC59 = assay: cell growth / viable cell count in ERBB4-overexpressing, BTK-negative cell line; assay type: cell-based, human; design: % Survival: dose or concentration left out as unconfirmed
[1] = 0, 1 nM, 10 nM, 100 nM, 1 uM or 10 uM for 7 days
[2] = 1 uM, 7 days, Trypan blue exclusion, vs DMSO
[3] = percentage of viable cells after a 24-hour treatment of 1 nM ibrutinib

Ibrutinib
kinase activity (%) (ERBB3/HER3; 0.1 uM Ibrutinib): 100.0%
kinase activity (%) (ERBB3/HER3; 1 uM Ibrutinib): 206.1%
kinase activity (%) (EGFR/ERBB1; 0.1 uM Ibrutinib): 81.2%
kinase activity (%) (EGFR/ERBB1; 1 uM Ibrutinib): 89.7%
kinase activity (%) (DYRK2; 0.1 uM Ibrutinib): 97.3%
kinase activity (%) (DYRK2; 1 uM Ibrutinib): 82.3%
kinase activity (%) (TESK2; 0.1 uM Ibrutinib): 85.8%
kinase activity (%) (TESK2; 1 uM Ibrutinib): 83.5%
kinase activity (%) (HCK; 0.1 uM Ibrutinib): 102.1%
kinase activity (%) (HCK; 1 uM Ibrutinib): 105.0%
kinase activity (%) (TNK2; 0.1 uM Ibrutinib): 99.9%
kinase activity (%) (TNK2; 1 uM Ibrutinib): 86.9%
kinase activity (%) (SYK; 0.1 uM Ibrutinib): 90.5%
kinase activity (%) (SYK; 1 uM Ibrutinib): 109.7%
kinase activity (%) (Tec; 0.1 uM Ibrutinib): 68.7%
kinase activity (%) (Tec; 1 uM Ibrutinib): 62.0%
kinase activity (%) (ERBB4/HER4; 0.1 uM Ibrutinib): 67.1%
kinase activity (%) (ERBB4/HER4; 1 uM Ibrutinib): 44.1%
sensitivity of cell line (COV318; [1]): apparently resistant
growth inhibition rate (COV318; [2]): 8%
% Survival (COV318; [3]): 91.5%
growth inhibition rate (OVSAHO): 37%
kinase activity (%) (YES1; 0.1 uM Ibrutinib): 99.3%
kinase activity (%) (YES1; 1 uM Ibrutinib): 90.9%
growth inhibition rate (OVKATE): 45%
inhibition in the responsive cell lines (responsive cell lines): 60-75%
sensitivity of cell line (1321N1; [1]): apparently resistant
growth inhibition rate (1321N1; [2]): 10%
% Survival (1321N1; [3]): 89.7%
kinase activity (%) (BCRABL; 0.1 uM Ibrutinib): 92.0%
kinase activity (%) (BCRABL; 1 uM Ibrutinib): 93.1%
growth inhibition rate (HEC59; HEC59, 1 uM, 7 days, Trypan blue exclusion, vs DMSO): 31%
% Survival (HEC59; HEC59, percentage of viable cells): 68.8%
sensitivity of cell line (HEC59; Hec59, 0, 1 nM, 10 nM, 100 nM, 1 uM or 10 uM for 7 days): apparently resistant
